Numbered stars: 1 amine (or outer) side, 2 acyl side, 3 side chain; on linkers, the order of the positions; unused ones are H or OH. Bridge positions count the residues as written; N and C are the ends. Square brackets hold non-standard residues; d marks the D form. Peptide text beside a SMILES is read from it. * marks the point of attachment. Orn(4R-OH,5R-OCH2CH2NMe3+) = C[N+](C)(C)CCO[C@@H](N[*:3])[C@H](O)C[C@H](N[*:1])C(=O)[*:2]; pTerphenylCO(4''-OnC5H11) = CCCCCOc1ccc(-c2ccc(-c3ccc(C(=O)*)cc3)cc2)cc1; hTyr(3S-OH,4S-OH) = N[C@H](C(=O)O)[C@H](O)[C@@H](O)c1ccc(O)cc1; Pro(3S-OH,4S-Me) = C[C@H]1CN[C@H](C(=O)O)[C@H]1O; Hyp = O=C(O)[C@@H]1C[C@@H](O)CN1
Key:
[1] = Population PK model of rezafungin plasma concentrations, pooled phase 1 single- and multiple-ascending-dose i.v. data; format: in vivo, humans (healthy subjects)
Source text: Data were pooled from two phase 1 studies (ClinicalTrials.gov registration no. NCT02516904 and NCT02551549) previously described by Sandison et al. ([8]). The protocols and informed consent were reviewed and approved by an appropriate institutional review board before subject enrollment. The studies were designed and monitored in compliance with the ethical principles of good clinical practice and in accordance with the Declaration of Helsinki.
The first study (ClinicalTrials.gov registration no. NCT2516904) evaluated single i.v. doses of rezafungin. A total of 32 subjects were enrolled and randomized evenly to one of four cohorts. Within each cohort, six subjects were administered rezafungin and two subjects were administered placebo as a single 60-min i.v. infusion. A single rezafungin dose of 50, 100, 200, and 400 mg was administered to cohorts 1, 2, 3, and 4, respectively. In all cohorts, blood samples for PK evaluations were collected predose and at 0.25, 0.5, 1, 1.5, 2, 4, 6, 8, 12, 24, 48, and 120 h after the start of infusion and on days 7, 14 (±1 day), and 21 (±1 day).
The second study (ClinicalTrials.gov registration no. NCT02551549) evaluated multiple i.v. doses of rezafungin. A total of 24 subjects were enrolled and randomized evenly to one of three cohorts. Within cohorts 1 and 2, six subjects were administered once-weekly i.v. doses of rezafungin at 100 and 200 mg, respectively, and two subjects were administered once-weekly i.v. doses of placebo, infused over 60 min on days 1 and 8. Within cohort 3, six subjects were administered once-weekly i.v. rezafungin doses of 400 mg and two subjects were administered once-weekly i.v. doses of placebo, infused over 60 min on days 1, 8, and 15. Blood samples were collected predose and at 0.5, 1, 1.5, 2, 4, 6, 8, 12, 24, 48, and 120 h after the start of each infusion and on days 7, 14 (±1 day), 21 (±1 day), and 35 (±1 day, cohort 3 only).
(§1) All blood samples were collected using tubes with K2-EDTA. Plasma was collected by centrifugation and stored at −70°C until analysis. Samples were analyzed using a 100-μl aliquot volume and a protein-precipitation extraction procedure followed by liquid chromatography/tandem mass spectrometry analysis. The rezafungin calibration range was 10.0 ng/ml to 10,000 ng/ml, using d9-CD101 as an internal standard. The range of the assay was extended 10-fold by dilution. An AB-Sciex API 4000 system was operated in the selected reaction-monitoring mode under optimized conditions for detection of rezafungin and d9-CD101 positive ions formed by electrospray ionization. Excellent interassay accuracy and precision, as measured by the use of quality control (QC) samples, were obtained during validation. Across the range of QC samples tested (lower limit of quantitation through the high-QC range), the interassay accuracy (percent bias from nominal) ranged from 0.3% to 4.3%, while the interassay precision (percent CV) ranged from 2.7% to 5%. Dilution QC samples performed well, with −1.5% bias and an interassay precision of 3.4%.
Candidate population PK models were fit to the pooled data using Monte Carlo parametric expectation maximization as implemented in the open-source software program S-ADAPT (version 1.5.6) ([22][–][24]). The model selection criteria used to discriminate between candidate PK models included (i) evaluation of individual and population mean parameter estimates and their precision (standard error of the mean [SEM]), (ii) graphical examination of standard goodness-of-fit plots and plots of the observed versus individual predicted concentrations, (iii) reductions in both residual variability and interindividual variability, and (iv) comparison of the objective function for nested models or the Akaike information criterion ([25]) for either nested or nonnested models.
Interindividual variability was estimated for each structural population PK model parameter, where possible, by using an exponential-error model. […]

[2] = system: Candida glabrata; conditions: including azole- and echinocandin-resistant isolates; ref not given; cited from earlier work
Source text: (§2) Historically, Candida albicans has been the predominant pathogen in candidemia and invasive candidiasis infections ([1]). Despite this, Candida glabrata is now emerging as a greater concern for clinicians due to a recent increase in prevalence among candidemia and invasive candidiasis infections and the pathogen's natural predisposition for expressing azole and echinocandin resistance mutations ([2], [3]). Accordingly, the incidence of infections due to C. glabrata not only has increased more than 4-fold over the past 20 years ([4]) but also has been accompanied by an increased prevalence of b ...

[3] = system: C. glabrata isolates; conditions: including an echinocandin-resistant C. glabrata isolate; cited from earlier work
Source text: as §2

[4] = system: C. albicans isolates; conditions: cited from earlier work
Source text: as §2

[5] = system: Candida albicans; conditions: including azole- and echinocandin-resistant isolates; ref not given; cited from earlier work
Source text: as §2

[6] = Stability of rezafungin in plasma samples (bioanalytical validation, LC-MS/MS); format: in vitro ADME; conditions: K2-EDTA plasma samples
Method: as §1

[7] = cited from earlier work
Method: One of the unique features of rezafungin is its long half-life. […] This value far exceeds those reported for other echinocandins, which have terminal half-lives ranging from 9 to 52 h ([9][–][11]). […] Given rezafungin's long half-life, it is being evaluated ...

[8] = 400 mg the highest dose evaluated; cited from earlier work
Method: One of the unique features of rezafungin is its long half-life. […] This value far exceeds those reported for other echinocandins, which have terminal half-lives ranging from 9 to 52 h ([9][–][11]). […] Moreover, the model- ...

[9] = healthy subjects n = 42, i.v., four-compartment population PK model
[10] = weight power function centered on 75 kg, power fixed to 0.75
[11] = weight power function centered on 75 kg, power fixed to 1.0

CCCCCOc1ccc(-c2ccc(-c3ccc(C(=O)N[C@H]4C[C@@H](O)[C@@H](OCC[N+](C)(C)C)NC(=O)[C@@H]5[C@@H](O)[C@@H](C)CN5C(=O)[C@H]([C@@H](C)O)NC(=O)[C@H]([C@H](O)[C@@H](O)c5ccc(O)cc5)NC(=O)[C@@H]5C[C@@H](O)CN5C(=O)[C@H]([C@@H](C)O)NC4=O)cc3)cc2)cc1 [Rezafungin] ({pTerphenylCO(4''-OnC5H11)}-[Orn(4R-OH,5R-OCH2CH2NMe3+)]T[Hyp][hTyr(3S-OH,4S-OH)]T[Pro(3S-OH,4S-Me)]; lactam 1-C)
rezafungin clearance, typical 50-kg subject ([1]; final population PK model, allometric scaling, 50 kg): 0.138 L/h | rezafungin clearance, typical 100-kg subject ([1]; final population PK model, allometric scaling, 100 kg): 0.232 L/h | Q2, distributional clearance, population mean final estimate [1, 9]: 24.4 L/h | Q3, distributional clearance, population mean final estimate [1, 9]: 0.912 L/h | Q4, distributional clearance, population mean final estimate [1, 9]: 0.0739 L/h | V2, volume of distribution of the peripheral compartment, population mean final estimate [1, 9]: 12.6 L | V3, volume of distribution of the peripheral compartment, population mean final estimate [1, 9]: 8.75 L | V4, volume of distribution of the peripheral compartment, population mean final estimate [1, 9]: 27.9 L | Vc, volume of distribution of the central compartment, population mean final estimate [1, 9]: 8.94 L | clearance ([1]; human, iv, healthy subjects n = 42, i.v. 60-min infusion 50-400 mg single or once weekly, plasma, linear four-compartment model, S-ADAPT, read-out: CL, total clearance, population mean final estimate (converted)): 3.13 mL/min | CL coefficient, population mean final estimate [1, 10]: 0.187 liter/h/75 kg | Q2 coefficient, population mean final estimate [1, 10]: 24.3 liters/h/75 kg | Q3 coefficient, population mean final estimate [1, 10]: 0.908 liter/h/75 kg | Q4 coefficient, population mean final estimate [1, 10]: 0.0736 liter/h/75 kg | V2 coefficient, population mean final estimate [1, 11]: 12.5 liters/75 kg | V3 coefficient, population mean final estimate [1, 11]: 8.70 liters/75 kg | V4 coefficient, population mean final estimate [1, 11]: 27.7 liters/75 kg | Vc coefficient, population mean final estimate [1, 11]: 8.88 liters/75 kg | in vitro activity against C. glabrata [2]: potent in vitro activity | in vivo activity against a range of C. glabrata isolates [3]: in vivo activity | in vivo activity against a range of C. albicans isolates [4]: in vivo activity | in vitro activity against C. albicans [5]: potent in vitro activity | freeze-thaw stability [6]: stable through four freeze-thaw cycles | stability under frozen storage conditions ([6]; either at −20°C or at −70°C): at least 164 days | stability at room temperature ([6]; room temperature): at least 24 h | serious or severe adverse events ([7]; either phase 1 study): No serious or severe adverse events were observed | patients with moderate treatment-related adverse events ([7]; of the 42 patients evaluated, phase 1 studies): 4 | safety signals ([7]; phase 1 studies): no safety signals were noted | dose proportionality of maximum concentration, AUC and half-life [8]: dose proportional up to 400 mg

From PMC5971566, “Population Pharmacokinetic Analyses for Rezafungin (CD101) Efficacy Using Phase 1 Data” (Antimicrobial Agents and Chemotherapy, 2018)
